Measurements taken from patent US10023593B2, “ALK kinase inhibitor, and preparation method and uses thereof” (BEIJING PEARL BIOTECHNOLOGY LIMITED LIABILITY COMPANY, priority 2014, dated 2018).

Key:
cytochrome P450 1A2 = biological target: T1, cytochrome P450 1A2 (Homo sapiens, UniProt P05177); assay: Inhibitory activity on cytochrome P450 1A2; assay type: in vitro ADME; conditions: no significant inhibition
T1 sequence (P05177 1-516): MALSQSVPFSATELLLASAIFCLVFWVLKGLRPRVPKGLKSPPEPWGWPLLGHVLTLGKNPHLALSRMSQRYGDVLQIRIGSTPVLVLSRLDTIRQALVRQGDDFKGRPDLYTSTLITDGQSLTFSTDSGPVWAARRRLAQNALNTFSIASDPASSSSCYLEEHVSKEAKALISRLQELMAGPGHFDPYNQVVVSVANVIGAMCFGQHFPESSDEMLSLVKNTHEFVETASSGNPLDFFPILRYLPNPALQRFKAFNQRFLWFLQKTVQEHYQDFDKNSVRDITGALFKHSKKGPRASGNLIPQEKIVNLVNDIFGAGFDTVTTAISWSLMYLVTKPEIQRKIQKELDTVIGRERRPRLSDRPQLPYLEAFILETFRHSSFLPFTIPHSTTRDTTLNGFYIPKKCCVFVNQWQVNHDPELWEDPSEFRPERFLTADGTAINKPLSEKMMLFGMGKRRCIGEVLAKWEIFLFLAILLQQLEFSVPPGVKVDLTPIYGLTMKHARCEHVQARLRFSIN

cytochrome P450 2C19 = cytochrome P450 2C19 (Homo sapiens, UniProt P33261); assay: Inhibitory activity on cytochrome P450 2C19; assay type: in vitro ADME; conditions: no significant inhibition
cytochrome P450 2C19, sequence (P33261 whole entry): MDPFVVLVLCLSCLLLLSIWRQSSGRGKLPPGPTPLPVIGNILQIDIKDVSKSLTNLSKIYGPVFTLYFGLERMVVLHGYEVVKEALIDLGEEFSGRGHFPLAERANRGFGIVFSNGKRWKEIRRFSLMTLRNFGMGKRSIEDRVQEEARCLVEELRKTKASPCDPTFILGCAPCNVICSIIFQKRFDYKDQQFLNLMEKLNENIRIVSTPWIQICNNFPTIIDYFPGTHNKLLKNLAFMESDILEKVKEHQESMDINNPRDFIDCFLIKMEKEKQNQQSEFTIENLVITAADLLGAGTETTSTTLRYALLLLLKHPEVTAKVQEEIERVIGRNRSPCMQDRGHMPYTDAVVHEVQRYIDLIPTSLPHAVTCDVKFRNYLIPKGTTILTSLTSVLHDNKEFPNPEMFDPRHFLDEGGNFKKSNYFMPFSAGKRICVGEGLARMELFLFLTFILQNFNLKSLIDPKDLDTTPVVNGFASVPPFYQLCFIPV

Karpas-299 cell line = assay: CellTiter-Glo cell proliferation inhibition on Karpas-299 cell line; assay type: cell-based; conditions: Homo sapiens, 96 h, Karpas-299 cells, 5000 cells/well, 4 days drug treatment
How it was run: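 CellTiter-Glo luminescence measured after 4-day compound exposure (0.5% DMSO final) of Karpas-299 cells seeded at 5000/well in RPMI-1640 with 10% FBS, 37 °C, 5% CO2. IC50 derived from percent inhibition relative to vehicle wells.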

Wild Type ALK kinase = biological target: T2, Wild Type ALK kinase (Homo sapiens, UniProt Q9UM73); assay: HTRF KinEASE-TK assay, inhibitory activity on wild type ALK kinase; assay type: biochemical; conditions: wild type ALK 1 ng/μl, substrate 1 μM, 30° C. 35 minutes, read-out: Inhibition on ALK kinases (wildtype), IC50
T2 construct: purchased Sino-US Crown Bioscience, Inc. batch number ALK 20110607
T2 sequence (Q9UM73 19-1620): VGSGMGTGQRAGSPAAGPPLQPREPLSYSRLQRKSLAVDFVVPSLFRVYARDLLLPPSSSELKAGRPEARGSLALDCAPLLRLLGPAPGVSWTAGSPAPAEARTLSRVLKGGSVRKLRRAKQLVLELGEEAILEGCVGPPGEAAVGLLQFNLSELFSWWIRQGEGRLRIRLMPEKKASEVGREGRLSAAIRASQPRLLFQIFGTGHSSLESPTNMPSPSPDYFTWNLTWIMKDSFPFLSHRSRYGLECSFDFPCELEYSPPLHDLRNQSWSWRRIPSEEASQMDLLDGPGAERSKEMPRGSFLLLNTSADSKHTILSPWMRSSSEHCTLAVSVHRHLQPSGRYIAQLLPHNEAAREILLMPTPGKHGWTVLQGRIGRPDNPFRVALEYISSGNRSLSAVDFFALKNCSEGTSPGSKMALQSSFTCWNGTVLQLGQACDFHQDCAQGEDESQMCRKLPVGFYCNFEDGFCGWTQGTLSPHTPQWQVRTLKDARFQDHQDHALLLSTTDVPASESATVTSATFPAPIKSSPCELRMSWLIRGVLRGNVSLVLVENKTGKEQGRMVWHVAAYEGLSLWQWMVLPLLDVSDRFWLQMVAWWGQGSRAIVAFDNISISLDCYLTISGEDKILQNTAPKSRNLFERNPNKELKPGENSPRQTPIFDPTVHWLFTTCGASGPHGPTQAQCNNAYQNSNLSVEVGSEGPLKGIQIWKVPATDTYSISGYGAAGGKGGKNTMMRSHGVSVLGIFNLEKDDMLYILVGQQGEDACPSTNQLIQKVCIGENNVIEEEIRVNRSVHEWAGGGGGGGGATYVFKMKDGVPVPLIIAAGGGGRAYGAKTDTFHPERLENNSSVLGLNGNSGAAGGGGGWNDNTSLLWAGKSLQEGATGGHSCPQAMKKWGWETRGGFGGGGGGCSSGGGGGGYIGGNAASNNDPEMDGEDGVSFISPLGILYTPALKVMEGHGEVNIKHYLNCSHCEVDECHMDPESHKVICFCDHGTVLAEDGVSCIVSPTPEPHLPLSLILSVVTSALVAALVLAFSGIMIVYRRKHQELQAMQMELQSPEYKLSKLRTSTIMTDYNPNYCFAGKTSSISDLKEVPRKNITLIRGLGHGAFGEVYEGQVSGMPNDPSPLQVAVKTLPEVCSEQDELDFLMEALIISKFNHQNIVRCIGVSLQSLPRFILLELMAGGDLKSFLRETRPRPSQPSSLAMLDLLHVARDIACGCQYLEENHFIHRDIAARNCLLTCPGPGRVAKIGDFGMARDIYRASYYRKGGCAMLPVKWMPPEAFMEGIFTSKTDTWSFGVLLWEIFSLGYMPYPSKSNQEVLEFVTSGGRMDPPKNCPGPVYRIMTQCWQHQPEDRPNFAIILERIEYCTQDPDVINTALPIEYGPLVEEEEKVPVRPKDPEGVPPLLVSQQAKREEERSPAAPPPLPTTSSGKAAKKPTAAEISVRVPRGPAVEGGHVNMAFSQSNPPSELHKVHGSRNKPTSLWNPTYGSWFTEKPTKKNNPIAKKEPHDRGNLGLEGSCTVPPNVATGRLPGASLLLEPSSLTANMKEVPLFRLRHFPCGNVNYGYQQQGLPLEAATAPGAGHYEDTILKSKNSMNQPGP
How it was run: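 ALK kinase at 1 ng/μl and substrate at 1 μM were reacted with compound (1% DMSO) in buffer with 5 mM MgCl2 and 1 mM DTT for 35 min at 30 °C. HTRF detection used the 665/615 ratio, normalised to no-compound wells and to 10.4 μM LDK-378 wells. IC50 came from a concentration-response fit.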

cytochrome P450 2C9 = cytochrome P450 2C9 (Homo sapiens, UniProt P11712); assay: Inhibitory activity on cytochrome P450 2C9; assay type: in vitro ADME; conditions: no significant inhibition
cytochrome P450 2C9, sequence (P11712 whole entry): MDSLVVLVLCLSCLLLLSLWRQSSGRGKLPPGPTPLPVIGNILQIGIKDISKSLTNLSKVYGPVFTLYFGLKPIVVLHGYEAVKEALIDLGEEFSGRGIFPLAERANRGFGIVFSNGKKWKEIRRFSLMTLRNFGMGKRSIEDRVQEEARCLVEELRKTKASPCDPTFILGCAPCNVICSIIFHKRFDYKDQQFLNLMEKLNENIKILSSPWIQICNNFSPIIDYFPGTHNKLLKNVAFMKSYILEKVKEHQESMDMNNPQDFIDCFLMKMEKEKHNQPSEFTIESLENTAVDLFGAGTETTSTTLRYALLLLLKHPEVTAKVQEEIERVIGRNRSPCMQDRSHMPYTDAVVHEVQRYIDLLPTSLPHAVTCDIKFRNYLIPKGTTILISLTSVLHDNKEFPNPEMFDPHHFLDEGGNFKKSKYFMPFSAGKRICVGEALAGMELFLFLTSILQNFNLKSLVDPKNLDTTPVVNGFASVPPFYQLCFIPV

cytochrome P450 3A4 = cytochrome P450 3A4 (Homo sapiens, UniProt P08684); assay: Inhibitory activity on cytochrome P450 3A4; assay type: in vitro ADME; conditions: no significant inhibition
cytochrome P450 3A4, sequence (P08684 whole entry): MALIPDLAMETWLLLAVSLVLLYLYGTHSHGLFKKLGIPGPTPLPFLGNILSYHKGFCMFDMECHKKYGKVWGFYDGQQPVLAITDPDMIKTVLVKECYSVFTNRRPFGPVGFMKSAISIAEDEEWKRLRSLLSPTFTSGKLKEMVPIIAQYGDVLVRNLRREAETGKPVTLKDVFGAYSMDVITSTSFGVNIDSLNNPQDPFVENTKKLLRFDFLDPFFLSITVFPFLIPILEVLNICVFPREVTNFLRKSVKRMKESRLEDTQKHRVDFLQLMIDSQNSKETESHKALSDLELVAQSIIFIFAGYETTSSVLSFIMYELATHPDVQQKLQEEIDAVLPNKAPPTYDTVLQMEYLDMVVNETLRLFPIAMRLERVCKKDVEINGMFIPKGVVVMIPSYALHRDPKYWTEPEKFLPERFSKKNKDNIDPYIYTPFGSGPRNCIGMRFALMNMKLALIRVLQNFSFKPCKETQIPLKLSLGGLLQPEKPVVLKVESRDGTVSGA

cytochrome P450 2D6 = cytochrome P450 2D6 (Homo sapiens, UniProt P10635); assay: Inhibitory activity on cytochrome P450 2D6; assay type: in vitro ADME; conditions: no significant inhibition
cytochrome P450 2D6, sequence (P10635 whole entry): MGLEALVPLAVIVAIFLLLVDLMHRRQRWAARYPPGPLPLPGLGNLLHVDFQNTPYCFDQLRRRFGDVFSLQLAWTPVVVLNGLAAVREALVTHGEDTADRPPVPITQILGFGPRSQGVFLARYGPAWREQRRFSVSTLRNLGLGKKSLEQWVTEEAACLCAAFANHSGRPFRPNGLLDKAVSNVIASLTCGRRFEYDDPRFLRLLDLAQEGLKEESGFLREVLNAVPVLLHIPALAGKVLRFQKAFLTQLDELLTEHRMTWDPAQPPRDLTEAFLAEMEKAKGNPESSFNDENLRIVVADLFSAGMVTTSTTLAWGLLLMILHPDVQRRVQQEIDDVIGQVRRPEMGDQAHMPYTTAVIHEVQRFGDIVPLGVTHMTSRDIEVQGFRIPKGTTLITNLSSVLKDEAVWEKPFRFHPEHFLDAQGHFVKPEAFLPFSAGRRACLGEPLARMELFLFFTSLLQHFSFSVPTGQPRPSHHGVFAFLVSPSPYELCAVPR

Row | IC50 (cytochrome P450 1A2) [µM] | IC50 (cytochrome P450 2C19) [µM] | IC50 (Karpas-299 cell line) [µM] | IC50 (Wild Type ALK kinase) [µM] | IC50 (cytochrome P450 2C9) [µM] | IC50 (cytochrome P450 3A4) [µM] | IC50 (cytochrome P450 2D6) [µM] | SMILES
1 | > 10 | > 10 | 0.015 | 0.004 | > 10 | > 10 | > 10 | CC(C)S(=O)(=O)c1nn(C)cc1Nc1nc(Nc2cc(Cl)c(C3CCN(C)CC3)cc2OC2CC2)ncc1Cl [Final product 47]
2 | > 10 | > 10 | 0.004 | 0.002 | > 10 | > 10 | > 10 | Cc1cc(Nc2ncc(Cl)c(Nc3cn(C)nc3S(=O)(=O)C(C)C)n2)c(OC2CC2)cc1C1CC(C)N(C)C(C)C1 (centres unmarked) [Final product 95]
3 | > 10 | > 10 | 0.019 | 0.01 | > 10 | > 10 | > 10 | Cc1cc(Nc2ncc(Cl)c(Nc3cn(C)nc3S(=O)(=O)C(C)C)n2)c(OC2CC2)cc1C1CCN(C2COC2)CC1 [Final product 156]

Continued, compound first:

Row | SMILES | IC50 (cytochrome P450 1A2) [µM] | IC50 (cytochrome P450 2C19) [µM] | IC50 (Karpas-299 cell line) [µM] | IC50 (Wild Type ALK kinase) [µM] | IC50 (cytochrome P450 2C9) [µM] | IC50 (cytochrome P450 3A4) [µM] | IC50 (cytochrome P450 2D6) [µM]
4 | Cc1cc(Nc2ncc(Cl)c(Nc3cn(C)nc3S(=O)(=O)C(C)C)n2)c(OC2CC2)cc1C1CCN(CCO)CC1 [Final product 133, 2-(4-(4-(5-chloro-4-(3-(isopropylsulfonyl)-1-methyl-1H-pyrazol-4-amino)pyrimidin-2-amino)-5-cyclopropoxy-2-methylphenyl)piperidin-1-yl) ethanol] | > 10 | > 10 | 0.004 | 0.002 | > 10 | > 10 | > 10
5 | Cc1cc(Nc2ncc(Cl)c(Nc3cn(C)nc3S(=O)(=O)C(C)C)n2)c(OC2CC2)cc1C1CCN(CCN(C)C)CC1 [Final product 146, 5-chloro-N^2-(2-cyclopropoxy-4-(1-(2-(dimethylamino)ethyl)piperidin-4-yl)-5-methylphenyl)-N^4-(3-(isopropylsulfonyl)-1-methyl-1H-pyrazol-4-yl)-pyrimidin-2,4-diamine] | > 10 | > 10 | 0.015 | 0.002 | > 10 | > 10 | > 10
6 | CC(=O)N1CCC(c2cc(OC3CC3)c(Nc3ncc(Cl)c(Nc4cn(C)nc4S(=O)(=O)C(C)C)n3)cc2C)CC1 [Final product 160, 1-acetyl-4-(4-(5-chloro-4-(3-(isopropylsulfonyl)-1-methyl-1H-pyrazol-4-amino)pyrimidin-2-amine)-5-cyclopropoxy-2-methylphenyl)piperidine] | > 10 | > 10 | 0.014 | 0.007 | > 10 | > 10 | > 10
7 | Cc1cc(Nc2ncc(Cl)c(Nc3cn(C)nc3S(=O)(=O)C(C)C)n2)c(OC2CC2)cc1C1CCN(C(=O)C(F)(F)F)CC1 [Final product 161, 1-trifluoroacetyl-4-(4-(5-chloro-4-(3-(isopropylsulfonyl)-1-methyl-1H-pyrazol-4-amino)pyrimidin-2-amine)-5-cyclopropoxy-2-methylphenyl)piperidine] | > 10 | > 10 | 0.027 | 0.032 | > 10 | > 10 | > 10
8 | Cc1cc(Nc2ncc(Cl)c(Nc3cn(C)nc3S(=O)(=O)C(C)C)n2)c(OC2CC2)cc1C1CCN(C(=O)CC#N)CC1 [Final product 166, 1-cyano acetyl-4-(4-(5-chloro-4-(3-(isopropylsulfonyl)-1-methyl-1H-pyrazol-4-amino)pyrimidin-2-amine)-5-cyclopropoxy-2-methylphenyl)piperidine] | > 10 | > 10 | 0.008 | 0.003 | > 10 | > 10 | > 10
